For assay [1], the target named is T1, CAT1 (cationic amino acid transporter 1, CAT1/SLC7A1) (Homo sapiens, UniProt P30825).
T1 construct: full-length human transporter stably transfected in HEK cells (HEK-CAT1); net uptake against HEK-VC vector control cells
As to the kind of experiment: inhibition of [3H]-L-arginine uptake in HEK-CAT1 cells, Lineweaver-Burk. Particulars: substrate L-arginine; competitive. The assay is classed as cell-based.

Assay [2] has as its target T1, CAT1 (cationic amino acid transporter 1, CAT1/SLC7A1). As to the kind of experiment: cell-based. Further details: species or system HEK-CAT1 (HEK293 stably transfected); Inhibition of net CAT1-mediated [3H]-L-arginine (100 uM) uptake, 5 min, scintillation counting, vector control subtracted. Particulars: HEK293, L-arginine 100 uM as substrate; for inhibition at 20 µM: read-out: % Inhibition of L-arginine uptake at 20 µM; for inhibition at 200 µM: read-out: % Inhibition of L-arginine uptake at 200 µM. The procedure, abridged: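 HEK-CAT1 and vector-control HEK-VC cells took up [3H]-L-arginine (100 μM) for 5 min, with or without drug at 20 or 200 µM; [3H]-L-homoarginine or [3H]-ADMA uptake ran 2.5 min. Net uptake is CAT1 minus VC cells, and inhibition (%) = 100 − (V/V0 × 100). Negative values mean stimulated uptake.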

Assay [3] has the same target. As to the kind of experiment: cell-based. Further details: species or system HEK-CAT1 (HEK293 stably transfected); Inhibition of net CAT1-mediated [3H]-L-homoarginine (1 uM) uptake, 2.5 min, scintillation counting, vector control subtracted. Particulars: HEK293, L-homoarginine 1 uM as substrate; for inhibition at 20 µM: read-out: % Inhibition of L-homoarginine uptake at 20 µM; for inhibition at 200 µM: read-out: % Inhibition of L-homoarginine uptake at 200 µM. The procedure, abridged:
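HEK-CAT1 cells with HEK-VC vector controls; [3H]-L-homoarginine (1 μM) uptake over 2.5 min with or without test compound at 20 µM or 200 µM. Net CAT1 uptake (CAT1 minus VC) gives inhibition (%) = 100 – (V/V0 × 100). Negative values mean stimulated uptake; n = 6–9 from at least two independent experiments.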

Assay [4] shares this target. As to the kind of experiment: cell-based. Further details: species or system HEK-CAT1 (HEK293 stably transfected); Inhibition of net CAT1-mediated [3H]-ADMA (1 uM) uptake, 2.5 min, scintillation counting, vector control subtracted. Particulars: HEK293, ADMA 1 uM as substrate; for inhibition at 20 µM: read-out: % Inhibition of ADMA uptake at 20 µM; for inhibition at 200 µM: read-out: % Inhibition of ADMA uptake at 200 µM. An outline of the steps: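 HEK cells expressing CAT1 and vector-control cells took up [^3H]-L-arginine for 5 min, or [^3H]-L-homoarginine or [^3H]-ADMA (1 μM) for 2.5 min, with or without drug at 20 or 200 µM. Net CAT1 uptake was CAT1 cells minus control cells, and inhibition (%) = 100 − V/V0×100. Negative values mean stimulation; n = 6–9.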

Assay [5] shares this target. As to the kind of experiment: inhibition of [3H]-L-homoarginine uptake in HEK-CAT1 cells. The assay is classed as cell-based. Particulars: read-out: % inhibition at 20 μM.

Consider 23 compounds from paper PMC9217908, “Screening of commonly prescribed drugs for effects on the CAT1-mediated transport of L-arginine and arginine derivatives” (Amino Acids, 2022).

Where two headings read alike, the source gives them in different places.

T1 sequence (P30825 whole entry): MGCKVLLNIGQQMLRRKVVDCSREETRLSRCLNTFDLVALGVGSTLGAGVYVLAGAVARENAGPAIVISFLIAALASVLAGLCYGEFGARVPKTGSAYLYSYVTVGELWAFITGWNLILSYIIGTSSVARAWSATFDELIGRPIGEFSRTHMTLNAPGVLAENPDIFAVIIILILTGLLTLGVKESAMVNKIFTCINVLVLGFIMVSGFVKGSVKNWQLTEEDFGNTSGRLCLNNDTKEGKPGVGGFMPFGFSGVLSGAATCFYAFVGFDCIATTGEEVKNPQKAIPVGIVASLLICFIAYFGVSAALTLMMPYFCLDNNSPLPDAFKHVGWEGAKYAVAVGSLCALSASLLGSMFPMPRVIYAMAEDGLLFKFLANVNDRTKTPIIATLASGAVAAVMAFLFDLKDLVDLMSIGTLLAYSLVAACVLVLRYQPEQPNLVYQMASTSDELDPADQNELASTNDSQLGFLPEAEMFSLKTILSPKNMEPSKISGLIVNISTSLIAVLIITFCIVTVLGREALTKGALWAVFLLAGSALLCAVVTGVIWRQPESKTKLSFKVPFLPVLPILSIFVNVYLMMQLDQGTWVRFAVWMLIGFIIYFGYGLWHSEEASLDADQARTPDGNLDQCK

`CN(C)C(=N)NCCC[C@H](N)C(=O)O` [ADMA]: the “inhibition of [3H]-L-arginine uptake in HEK-CAT1 cells, Lineweaver-Burk” value in assay [1] was “competitive inhibition pattern for L-homoarginine and ADMA”.
The same measure, in the same setting: in the case of `N=C(N)NCCCC[C@H](N)C(=O)O` [L-homoarginine] it was “competitive inhibition pattern for L-homoarginine and ADMA”.
As to `CC[C@H](C)C(=O)O[C@H]1C[C@H](O)C=C2C=C[C@H](C)[C@H](CC[C@@H](O)C[C@@H](O)CC(=O)O)[C@H]21` [Pravastatin], the inhibition at 20 µM is 0.2 ± 4.4% in assay [2], -0.4 ± 3.8% in assay [3] and -18.5 ± 3.3% in assay [4]. For the same compound, the inhibition at 200 µM is 4.1 ± 2.6% in assay [2], -10.1 ± 1.4% in assay [3] and -4.4 ± 9.6% in assay [4].
In the case of `C[C@]12C=CC(=O)C=C1CC[C@@H]1[C@@H]2[C@@H](O)C[C@@]2(C)[C@H]1CC[C@]2(O)C(=O)CO` [Prednisolone], the inhibition at 20 µM was 12.5 ± 4.1% in assay [2], -11.1 ± 5.8% in assay [3] and -3.3 ± 6.9% in assay [4]. Further, the figures for the inhibition at 200 µM in assay [2], in assay [3] and in assay [4] were -21.4 ± 1.3%, -16.5 ± 2.4% and 13.4 ± 4.7%, respectively.
As to `C[C@]12C=CC(=O)C=C1CC[C@@H]1[C@@H]2C(=O)C[C@@]2(C)[C@H]1CC[C@]2(O)C(=O)CO` [Prednisone], the inhibition at 20 µM in assay [2] is 13.9 ± 3.4%; in assay [3], 12.5 ± 2.7%; in assay [4] it was -33.3 ± 2.3%. Further, the inhibition at 200 µM in assay [2] was 19.1 ± 0.8%; in assay [3], 13.2 ± 2.6%; in assay [4], -16.9 ± 2.24%.
Take `CCCN(CCC)S(=O)(=O)c1ccc(C(=O)O)cc1` [Probenecid]: the inhibition at 20 µM in assay [2] is -2.6 ± 3.2%; in assay [3] it was -2.9 ± 2.8%; in assay [4] it was -24.9 ± 8.3%. Also, the inhibition at 200 µM in assay [2] is 0.4 ± 2.1%; in assay [3] it was -1.1 ± 2.2%; in assay [4], -17.5 ± 1.8%.
In the case of `CC(CN1c2ccccc2Sc2ccccc21)N(C)C` (stereo not shown) [Promethazine], the inhibition at 20 µM in assay [2] was -1.3 ± 7.1%; in assay [3], 4.3 ± 2%; in assay [4], 4.2 ± 2%. For the same compound, the inhibition at 200 µM in assay [2] is 14.4 ± 6%; in assay [3], 14 ± 0.9%; in assay [4], -9.2 ± 1.2%.
Take `CC(C)NCC(O)COc1cccc2ccccc12` (stereo not shown) [Propranolol]: the inhibition at 20 µM in assay [2] was -0.9 ± 8.1%; in assay [3], -21.6 ± 0.7%; in assay [4], -27.2 ± 3.6%. In addition, the inhibition at 200 µM in assay [2] was -1.1 ± 7.8%; in assay [3], -3.5 ± 2.1%; in assay [4], -36.3 ± 9.5%.
Consider `CCc1nc(N)nc(N)c1-c1ccc(Cl)cc1` [Pyrimethamine], for which the values for the inhibition at 20 µM in assay [2], in assay [3] and in assay [4] were 6.9 ± 9.6%, -25.8 ± 15.5% and -37.1 ± 7.2%, respectively. Besides, the inhibition at 200 µM in assay [2] amounted to 31.2 ± 2.3%; in assay [3] it was 31.6 ± 2.7%; in assay [4], 23.4 ± 0.3%.
`C=C[C@H]1CN2CC[C@H]1C[C@@H]2[C@@H](O)c1ccnc2ccc(OC)cc12` [Quinidine]: the results for the inhibition at 20 µM in assay [2], in assay [3] and in assay [4] were 29.1 ± 2.8%, 4.4 ± 6.2% and 4.4 ± 6.2%, respectively. Moreover, the inhibition at 200 µM is 2.7 ± 1% in assay [2], 5.9 ± 1.9% in assay [3] and -19.6 ± 7.7% in assay [4].
`CCOC(=O)[C@H](CCc1ccccc1)N[C@@H](C)C(=O)N1[C@H](C(=O)O)C[C@@H]2CCC[C@@H]21` [Ramipril]: the inhibition at 20 µM in assay [2] was 0.3 ± 12%; in assay [3] it was -0.7 ± 11.5%; in assay [4] it was 0.1 ± 6.9%. Also, the inhibition at 200 µM in assay [2] is -5.8 ± 2.3%; in assay [3] it was -6.5 ± 2%; in assay [4], -31.1 ± 6.9%.
Take `CNC(=C[N+](=O)[O-])NCCSCc1ccc(CN(C)C)o1` [Ranitidine]: the inhibition at 20 µM in assay [2] was 7.8 ± 1.8%; in assay [3], -4 ± 0.4%; in assay [4], -0.5 ± 5.8%. Further, the inhibition at 200 µM in assay [2] was 2.9 ± 3.9%; in assay [3] it was 6.8 ± 0.6%; in assay [4], 6.1 ± 3.4%.
Consider `COC(=O)[C@H]1[C@H]2C[C@@H]3c4[nH]c5cc(OC)ccc5c4CCN3C[C@H]2C[C@@H](OC(=O)c2cc(OC)c(OC)c(OC)c2)[C@@H]1OC` [Reserpine], for which the inhibition at 20 µM in assay [2] came out at 4.7 ± 7.9%; in assay [3], 5 ± 7.5%; in assay [4] it was 9 ± 2.6%. In addition, the inhibition at 200 µM worked out at 5.2 ± 2.9% in assay [2], 12.5 ± 1.7% in assay [3] and 24.2 ± 0.6% in assay [4].
As for `CO[C@H]1/C=C/O[C@@]2(C)Oc3c(C)c(O)c4c(O)c(c(/C=N/N5CCN(C)CC5)c(O)c4c3C2=O)NC(=O)/C(C)=C\C=C\[C@H](C)[C@H](O)[C@@H](C)[C@@H](O)[C@@H](C)[C@H](OC(C)=O)[C@@H]1C` [Rifampicin], the inhibition at 20 µM was -8.1 ± 11.5% in assay [2], -5.6 ± 7.8% in assay [3] and -5.5 ± 4.2% in assay [4].
As to `CC(=O)S[C@@H]1CC2=CC(=O)CC[C@]2(C)[C@H]2CC[C@@]3(C)[C@@H](CC[C@@]34CCC(=O)O4)[C@H]12` [Spironolactone], the results for the inhibition at 20 µM in assay [2], in assay [3] and in assay [4] were -3.7 ± 5.3%, -3.9 ± 5.2% and 3.2 ± 2.3%, respectively. For the same compound, the inhibition at 200 µM in assay [2] is -4.8 ± 6.6%; in assay [3] it was -11.5 ± 2.8%; in assay [4], -7.6 ± 2.1%.
In the case of `C=CC[C@@H]1/C=C(\C)C[C@H](C)C[C@H](OC)[C@H]2O[C@@](O)(C(=O)C(=O)N3CCCC[C@H]3C(=O)O[C@H](/C(C)=C/[C@@H]3CC[C@@H](O)[C@H](OC)C3)[C@H](C)[C@@H](O)CC1=O)[C@H](C)C[C@@H]2OC` [Tacrolimus], the inhibition at 20 µM in assay [2] was 28.5 ± 3.7%; in assay [3] it was -10.3 ± 3.6%; in assay [4], -14.2 ± 1.2%. Further, the inhibition at 200 µM in assay [2] is 69.6 ± 4.8%; in assay [3], 13.4 ± 1.1%; in assay [4], -11.8 ± 2.4%.
For the compound `Clc1ccccc1CN1CCc2sccc2C1` [Ticlopidine], the inhibition at 20 µM in assay [2] is 10.4 ± 4.4%; in assay [3], -4.3 ± 4.6%; in assay [4], -11.3 ± 8.3%. The inhibition at 200 µM in assay [2] was 31.7 ± 10.4%; in assay [3], 31.4 ± 10.1%; in assay [4] it was -33.5 ± 3.3%.
Take `Nc1nc(N)c2nc(-c3ccccc3)c(N)nc2n1` [Triamterene]: the inhibition at 20 µM in assay [2] amounted to 5.1 ± 8.8%; in assay [3] it was 10.7 ± 2.1%; in assay [4], 12.6 ± 3.2%. For the same compound, the values for the inhibition at 200 µM in assay [2], in assay [3] and in assay [4] were 16.7 ± 1.6%, 14.1 ± 0.5% and -10.6 ± 0.6%, respectively.
On to `COc1cc(Cc2cnc(N)nc2N)cc(OC)c1OC` [Trimethoprim], for which the inhibition at 20 µM is 9.9 ± 4.2% in assay [2], -17 ± 1.9% in assay [3] and -13.7 ± 2.8% in assay [4]. Also, the inhibition at 200 µM in assay [2] was -16.3 ± 6.7%; in assay [3] it was -13.8 ± 4.1%; in assay [4], -68.1 ± 11.3%.
As for `CC(CN(C)C)CN1c2ccccc2CCc2ccccc21` (stereo not shown) [Trimipramine], the figures for the inhibition at 20 µM in assay [2], in assay [3] and in assay [4] were 1.3 ± 2.4%, 1.8 ± 4.5% and -26.1 ± 11.5%, respectively. Besides, the figures for the inhibition at 200 µM in assay [2], in assay [3] and in assay [4] were 24.2 ± 4.5%, 34.1 ± 3.8% and -13.4 ± 3.7%, respectively.
Turning to `O=C(O[C@H]1C[C@H]2CC[C@@H](C1)[N+]21CCCC1)C(O)(c1ccccc1)c1ccccc1` [Trospium Chloride], the inhibition at 20 µM in assay [2] stood at 27.1 ± 2.1%. Besides, the results for the inhibition at 200 µM in assay [2], in assay [3] and in assay [4] were -23.8 ± 4.5%, -22.5 ± 2.3% and 3 ± 9.1%, respectively.
Regarding `CCCC(CCC)C(=O)O` [Valproic acid], the inhibition at 20 µM in assay [2] is 12.6 ± 2.5%; in assay [3], 10.2 ± 1.4%; in assay [4], -7.6 ± 4%. Further, the inhibition at 200 µM was -3.1 ± 6.1% in assay [2], -9.5 ± 5.1% in assay [3] and -47.5 ± 6% in assay [4].
As to `O=C(OC1C[C@H]2CC[C@@H](C1)[N+]21CCCC1)C(O)(c1ccccc1)c1ccccc1` (stereo partly shown) [trospium], in assay [5], the inhibition at 20 µM stood at 28.6%.
